From patent publication US10981917B2, “Heterocyclic compound, its preparation method, and pharmaceutical composition comprising the same” (Daewoong Pharmaceutical Co., Ltd., priority 2017, dated 2021) come the findings set out here.

The structures appear in SMILES notation. pIC50: −log10 of the molar value.

The assay deals with PRS (prolyl-tRNA synthetase) protein, PRS portion of EPRS (Homo sapiens (Human), UniProt P07814). Nature of the assay: PRS enzyme activity inhibition experiment ([3H]proline, liquid scintillation). It is filed as biochemical. The settings on record: purified PRS protein, 37° C. for 5 to 10 minutes. On the procedure: In order to confirm the biological activities of the compounds prepared in Examples, % inhibition or IC50 values of PRS enzyme ([…]) activities were calculated.
PRS (prolyl-tRNA synthetase) protein, PRS portion of EPRS, sequence (P07814 1007-1512): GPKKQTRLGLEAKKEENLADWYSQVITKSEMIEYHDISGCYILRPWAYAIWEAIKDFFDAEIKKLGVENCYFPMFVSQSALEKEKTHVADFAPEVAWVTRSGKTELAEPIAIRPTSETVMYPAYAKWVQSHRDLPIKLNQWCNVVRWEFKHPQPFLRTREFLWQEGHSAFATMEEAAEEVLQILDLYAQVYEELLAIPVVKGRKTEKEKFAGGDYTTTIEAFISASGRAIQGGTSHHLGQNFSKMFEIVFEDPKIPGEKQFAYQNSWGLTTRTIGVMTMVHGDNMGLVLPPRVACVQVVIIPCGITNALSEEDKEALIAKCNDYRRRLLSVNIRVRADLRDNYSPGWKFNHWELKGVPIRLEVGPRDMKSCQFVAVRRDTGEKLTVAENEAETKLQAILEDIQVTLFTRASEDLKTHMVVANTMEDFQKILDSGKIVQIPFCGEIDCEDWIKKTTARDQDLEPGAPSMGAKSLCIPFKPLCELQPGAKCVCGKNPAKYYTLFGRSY
Specifically, the portion corresponding to PRS in cDNA of EPRS was subcloned, and the obtained high-purity PRS protein was purified and used in the experiment. The compounds (1 μM) prepared in Examples were added into the reaction buffer (20 mM KPO4 (pH 7.4), 6 mM MgAc, 5 mM ATP, […] tRNA, 0.5 mM DTT, […][^3H]proline (1 mCi/mL)) and allowed to react at 37° C. for 5 to 10 minutes. The reaction was terminated with 3M paper that was in advance dried by addition of 5% TCA. The radioactivity was measured using a liquid scintillation counter.
% Inhibition and IC50 values of the respective compounds were calculated and analyzed using Microsoft Excel or Sigma Plot 8.0. In Tables 1 to 3, the results are divided into A, B and C according to the range of IC50. The case where the derived IC50 is 100 nM or less is represented by “A”, the case where the IC50 is 100 to 500 nM is represented by “B”, and the case where the IC50 is 500 nM or higher is represented by “C”.
The molecule `O[C@H]1CCCN[C@@H]1CCCn1cnc2cc(Br)c(F)cc21` [Example 35, (2R,3S)-2-(3-(5-bromo-6-fluoro-1H-benzo[d]imidazol-1-yl)propyl)piperidin-3-ol] had a pIC50 of 6.30 to 7.00.

`O[C@H]1CCCN[C@@H]1CCCn1cnc2cc(Cl)c(Br)cc21` [Example 36, (2R,3S)-2-(3-(6-bromo-5-chloro-1H-benzo[d]imidazol-1-yl)propyl)piperidin-3-ol]: the pIC50 is 6.30 to 7.00.

`COc1cc2ncn(CCC[C@H]3NCCC[C@@H]3O)c2cc1Cl` [Example 37, (2R,3S)-2-(3-(6-chloro-5-methoxy-1H-benzo[d]imidazol-1-yl)propyl)piperidin-3-ol]: the pIC50 is 6.30 to 7.00.

Consider `COc1cc2ncn(CCC[C@H]3NCCC[C@@H]3O)c2cc1F` [Example 38, (2R,3S)-2-(3-(6-fluoro-5-methoxy-1H-benzo[d]imidazol-1-yl)propyl)piperidin-3-ol], for which the pIC50 is not above 6.30.

For `Cc1cc2c(cc1F)ncn2CCC[C@H]1NCCC[C@@H]1O` [Example 39, (2R,3S)-2-(3-(5-fluoro-6-methyl-1H-benzo[d]imidazol-1-yl)propyl)piperidin-3-ol], the pIC50 was 6.30 to 7.00.

`O[C@H]1CCCN[C@@H]1CCCn1cnc2c(Cl)c(Cl)ccc21` [Example 40, (2R,3S)-2-(3-(4,5-dichloro-1H-benzo[d]imidazol-1-yl)propyl)piperidin-3-ol] showed a pIC50 not below 7.00.

Molecule `O[C@H]1CCCN[C@H]1CCCn1cnc2c(Cl)c(Cl)ccc21` [Example 41, (2S,3S)-2-(3-(4,5-dichloro-1H-benzo[d]imidazol-1-yl)propyl)piperidin-3-ol] gave a pIC50 not above 6.30.

`O[C@@H]1CCCN[C@H]1CCCn1cnc2c(Cl)c(Cl)ccc21` [Example 42, (2S,3R)-2-(3-(4,5-dichloro-1H-benzo[d]imidazol-1-yl)propyl)piperidin-3-ol]: the pIC50 was not above 6.30.

In the case of `Cc1ccc2c(ncn2CCC[C@H]2NCCC[C@@H]2O)c1Cl` [Example 44, (2R,3S)-2-(3-(4-chloro-5-methyl-1H-benzo[d]imidazol-1-yl)propyl)piperidin-3-ol], the pIC50 was 6.30 to 7.00.

Regarding `Cc1c(Br)ccc2c1ncn2CCC[C@H]1NCCC[C@@H]1O` [Example 45, (2R,3S)-2-(3-(5-bromo-4-methyl-1H-benzo[d]imidazol-1-yl)propyl)piperidin-3-ol], the pIC50 is 6.30 to 7.00.

Molecule `Cc1c(Cl)ccc2c1ncn2CCC[C@H]1NCCC[C@@H]1O` [Example 46, (2R,3S)-2-(3-(5-chloro-4-methyl-1H-benzo[d]imidazol-1-yl)propyl)piperidin-3-ol] gave a negative logarithm of the IC50 (pIC50) not below 7.00.

Molecule `O[C@H]1CCCN[C@@H]1CCCn1cnc2c(F)c(Br)ccc21` [Example 47, (2R,3S)-2-(3-(5-bromo-4-fluoro-1H-benzo[d]imidazol-1-yl)propyl)piperidin-3-ol] gave a pIC50 of 6.30 to 7.00.

As for `O[C@H]1CCCN[C@@H]1CCCn1cnc2ccc(Br)c(F)c21` [Example 48, (2R,3S)-2-(3-(6-bromo-7-fluoro-1H-benzo[d]imidazol-1-yl)propyl)piperidin-3-ol], the pIC50 is 6.30 to 7.00.

Regarding `O[C@H]1CCCN[C@@H]1CCCn1cnc2c(F)c(F)ccc21` [Example 49, (2R,3S)-2-(3-(4,5-difluoro-1H-benzo[d]imidazol-1-yl)propyl)piperidin-3-ol], the pIC50 was 6.30 to 7.00.

In turn, `O[C@H]1CCCN[C@@H]1CCCn1cnc2ccc(F)c(F)c21` [Example 50, (2R,3S)-2-(3-(6,7-difluoro-1H-benzo[d]imidazol-1-yl)propyl)piperidin-3-ol] gave a pIC50 of 6.30 to 7.00.

On to `Cc1ccc2c(ncn2CCC[C@H]2NCCC[C@@H]2O)c1C` [Example 51, (2R,3S)-2-(3-(4,5-dimethyl-1H-benzo[d]imidazol-1-yl)propyl)piperidin-3-ol], for which the pIC50 was not above 6.30.

With `O[C@H]1CCCN[C@@H]1CCCn1cnc2cc(F)c(F)cc21` [Example 52, (2R,3S)-2-(3-(5,6-difluoro-1H-benzo[d]imidazol-1-yl)propyl)piperidin-3-ol], the pIC50 was 6.30 to 7.00.
